Assay results taken from PubChem BioAssay AID248 (DTP/NCI, 2004).
Several values for one entry are separate records, joined by “and”; a condition that tells them apart may be missing. Identical values can stand only once. Toxic doses and inconclusive results are not listed.

Test system: L1210 leukemia ip in BDF1 mice, survival T/C
Test: NCI In Vivo Anticancer Drug Screen. Data for tumor model L1210 Leukemia (intraperitoneal) in B6D2F1 (BDF1) mice
Conditions: endpoint: mean survival time, higher = longer survival
How it was run: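 Transplanted-tumor mice were given test agent; controls received vehicle only. Survival readings from the two groups were divided (treated over control).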

[1] = dose: 25.0 mg/kg/injection, schedule: Q01DX009 (ip), vehicle: saline with Tween-80
[2] = dose: 50.0 mg/kg/injection, schedule: Q01DX009 (ip), vehicle: saline with Tween-80
[3] = dose: 100.0 mg/kg/injection, schedule: Q01DX009 (ip), vehicle: saline with Tween-80
[4] = dose: 100.0 mg/kg/injection, schedule: Q04DX003 (ip), vehicle: saline with Tween-80
[5] = dose: 100.0 mg/kg/injection, schedule: Q04DX003 (ip), vehicle: saline
[6] = dose: 200.0 mg/kg/injection, schedule: Q04DX003 (ip), vehicle: saline
[7] = dose: 6.25 mg/kg/injection, schedule: Q04DX003 (ip), vehicle: Klucel (hydroxypropylcellulose) (HPC)
[8] = dose: 50.0 mg/kg/injection, schedule: Q04DX003 (ip), vehicle: saline

`C=C(C)CN=C=S` was tested. Which T/C [1] did it give?
Its T/C is 100 % of control.

And the T/C (dose: 25.0 mg/kg/injection, schedule: Q04DX003 (ip), vehicle: saline with Tween-80)?
Its T/C is 101 % of control.

What about the T/C [2] of the same molecule?
Its T/C is 98 % of control.

And the T/C (dose: 50.0 mg/kg/injection, schedule: Q04DX003 (ip), vehicle: saline with Tween-80)?
Its T/C is 109 % of control.

And the T/C [3]?
The T/C was 104 % of control.

And the T/C [4]?
The T/C was 103 % of control.

How did the T/C [4] turn out when `CC12CCC(C(C(=O)O)C1=O)C2(C)C` (centres undefined) was run?
Its T/C is 103 % of control.

What about the T/C (dose: 200.0 mg/kg/injection, schedule: Q04DX003 (ip), vehicle: saline with Tween-80) of the same molecule?
The T/C was 97 % of control.

And the T/C (dose: 400.0 mg/kg/injection, schedule: Q04DX003 (ip), vehicle: saline with Tween-80)?
The T/C was 100 % of control.

Which T/C (dose: 100.0 mg/kg/injection, schedule: Q01DX009 (ip), vehicle: gum acacia) does the source give for `CSc1ccc(NC(=O)Oc2ccccc2C(=O)OCc2ccccc2)cc1` here?
Its T/C is 95 % of control.

What about the T/C (dose: 200.0 mg/kg/injection, schedule: Q01DX009 (ip), vehicle: gum acacia) of the same molecule?
Its T/C is 100 % of control.

And the T/C (dose: 400.0 mg/kg/injection, schedule: Q01DX009 (ip), vehicle: gum acacia)?
The T/C was 102 % of control.

With `CC(=O)Nc1nc(C)c(CCC#N)c(=O)[nH]1` as the molecule, how does the T/C (dose: 100.0 mg/kg/injection, schedule: Q01DX009 (ip), vehicle: saline) read?
The T/C was 101 % of control.

And the T/C [5]?
Its T/C is 96 % of control.

What about the T/C (dose: 200.0 mg/kg/injection, schedule: Q01DX009 (ip), vehicle: saline) of the same molecule?
The T/C was 101 % of control.

What about the T/C [6] of the same molecule?
Its T/C is 91 % of control.

What about the T/C (dose: 400.0 mg/kg/injection, schedule: Q01DX009 (ip), vehicle: saline) of the same molecule?
The T/C was 95 % of control.

And the T/C (dose: 400.0 mg/kg/injection, schedule: Q04DX003 (ip), vehicle: saline)?
Its T/C is 101 % of control.

With `CC1=C(Cl)C(Cl)(Cl)C(=O)C(=O)C1(Cl)Cl` as the molecule, how does the T/C (dose: 6.25 mg/kg/injection, schedule: Q01DX009 (ip), vehicle: saline sonified) read?
The T/C was 100 % of control.

What about the T/C [7] of the same molecule?
The T/C was 100 % of control.

And the T/C (dose: 12.5 mg/kg/injection, schedule: Q01DX009 (ip), vehicle: saline sonified)?
Its T/C is 102 % of control.

What about the T/C (dose: 12.5 mg/kg/injection, schedule: Q04DX003 (ip), vehicle: Klucel (hydroxypropylcellulose) (HPC)) of the same molecule?
Its T/C is 95 % of control.

And the T/C (dose: 25.0 mg/kg/injection, schedule: Q01DX009 (ip), vehicle: saline sonified)?
Its T/C is 92 % of control.

What about the T/C (dose: 25.0 mg/kg/injection, schedule: Q04DX003 (ip), vehicle: Klucel (hydroxypropylcellulose) (HPC)) of the same molecule?
The T/C was 95 % of control.

Which T/C (dose: 100.0 mg/kg/injection, schedule: Q01DX001 (ip), vehicle: Klucel (hydroxypropylcellulose) (HPC)) does the source give for `O=N/N=c1/sc2ccccc2n1-c1ccccc1` here?
The T/C was 103 % of control.

And the T/C (dose: 200.0 mg/kg/injection, schedule: Q01DX001 (ip), vehicle: Klucel (hydroxypropylcellulose) (HPC))?
Its T/C is 94 % of control.

What about the T/C (dose: 400.0 mg/kg/injection, schedule: Q01DX001 (ip), vehicle: Klucel (hydroxypropylcellulose) (HPC)) of the same molecule?
The T/C was 100 % of control.

For `O=c1[nH]nc(Br)c(=O)n1C(c1ccccc1)c1ccccc1`, which T/C (dose: 22.0 mg/kg/injection, schedule: Q01DX015 (ip), vehicle: carboxymethylcellulose (CMC)) is on record?
The T/C was 89 % of control.

And the T/C (dose: 33.0 mg/kg/injection, schedule: Q01DX015 (ip), vehicle: carboxymethylcellulose (CMC))?
Its T/C is 97 % of control.

And the T/C (dose: 44.0 mg/kg/injection, schedule: Q01DX001 (ip), vehicle: carboxymethylcellulose (CMC))?
Its T/C is 97 % of control and 101 % of control.

What about the T/C (dose: 50.0 mg/kg/injection, schedule: Q01DX015 (ip), vehicle: carboxymethylcellulose (CMC)) of the same molecule?
Its T/C is 95 % of control.

What about the T/C (dose: 66.0 mg/kg/injection, schedule: Q01DX001 (ip), vehicle: carboxymethylcellulose (CMC)) of the same molecule?
Its T/C is 94 % of control and 98 % of control.

And the T/C (dose: 75.0 mg/kg/injection, schedule: Q01DX015 (ip), vehicle: carboxymethylcellulose (CMC))?
The T/C was 97 % of control.

And the T/C (dose: 150.0 mg/kg/injection, schedule: Q01DX001 (ip), vehicle: carboxymethylcellulose (CMC))?
The T/C was 95 % of control and 96 % of control.

And the T/C (dose: 200.0 mg/kg/injection, schedule: Q01DX001 (ip), vehicle: carboxymethylcellulose (CMC))?
The T/C was 154 % of control.

What about the T/C (dose: 400.0 mg/kg/injection, schedule: Q01DX001 (ip), vehicle: carboxymethylcellulose (CMC)) of the same molecule?
Its T/C is 96 % of control.

`CCCCCCCCCCC(=O)CC` was tested. Which T/C [3] did it give?
Its T/C is 102 % of control.

And the T/C (dose: 200.0 mg/kg/injection, schedule: Q01DX009 (ip), vehicle: saline with Tween-80)?
The T/C was 104 % of control.

And the T/C (dose: 400.0 mg/kg/injection, schedule: Q01DX009 (ip), vehicle: saline with Tween-80)?
Its T/C is 113 % of control.

With `c1ccc([P+](c2ccccc2)(c2ccccc2)c2ccc([P+](c3ccccc3)(c3ccccc3)c3ccccc3)c3ccccc23)cc1` as the molecule, how does the T/C (dose: 0.6 mg/kg/injection, schedule: Q04DX003 (ip), vehicle: Klucel (hydroxypropylcellulose) (HPC)) read?
The T/C was 92 % of control.

And the T/C (dose: 1.0 mg/kg/injection, schedule: Q04DX003 (ip), vehicle: Klucel (hydroxypropylcellulose) (HPC))?
Its T/C is 92 % of control.

And the T/C (dose: 1.5 mg/kg/injection, schedule: Q04DX003 (ip), vehicle: Klucel (hydroxypropylcellulose) (HPC))?
Its T/C is 92 % of control.

And the T/C (dose: 2.25 mg/kg/injection, schedule: Q04DX003 (ip), vehicle: Klucel (hydroxypropylcellulose) (HPC))?
The T/C was 92 % of control.

What about the T/C (dose: 3.12 mg/kg/injection, schedule: Q04DX003 (ip), vehicle: Klucel (hydroxypropylcellulose) (HPC)) of the same molecule?
Its T/C is 96 % of control.

And the T/C [7]?
The T/C was 94 % of control.

Which T/C (dose: 1.0 mg/kg/injection, schedule: Q01DX015 (ip), vehicle: carboxymethylcellulose (CMC)) does the source give for `Cc1c2ccccc2cc2cc[n+]3ccccc3c12` here?
Its T/C is 102 % of control.

What about the T/C (dose: 2.0 mg/kg/injection, schedule: Q01DX015 (ip), vehicle: carboxymethylcellulose (CMC)) of the same molecule?
Its T/C is 104 % of control.

What about the T/C (dose: 4.0 mg/kg/injection, schedule: Q01DX015 (ip), vehicle: carboxymethylcellulose (CMC)) of the same molecule?
Its T/C is 98 % of control.

What about the T/C (dose: 5.0 mg/kg/injection, schedule: Q01DX001 (ip), vehicle: carboxymethylcellulose (CMC)) of the same molecule?
Its T/C is 101 % of control.

What about the T/C (dose: 8.0 mg/kg/injection, schedule: Q01DX015 (ip), vehicle: carboxymethylcellulose (CMC)) of the same molecule?
The T/C was 102 % of control and 119 % of control.

And the T/C (dose: 10.0 mg/kg/injection, schedule: Q01DX001 (ip), vehicle: carboxymethylcellulose (CMC))?
The T/C was 101 % of control.

What about the T/C (dose: 16.0 mg/kg/injection, schedule: Q01DX015 (ip), vehicle: carboxymethylcellulose (CMC)) of the same molecule?
Its T/C is 111 % of control.

What about the T/C (dose: 20.0 mg/kg/injection, schedule: Q01DX001 (ip), vehicle: carboxymethylcellulose (CMC)) of the same molecule?
The T/C was 110 % of control.

And the T/C (dose: 20.0 mg/kg/injection, schedule: Q04DX003 (ip), vehicle: Klucel (hydroxypropylcellulose) (HPC))?
The T/C was 110 % of control.

And the T/C (dose: 40.0 mg/kg/injection, schedule: Q01DX001 (ip), vehicle: carboxymethylcellulose (CMC))?
Its T/C is 117 % of control.

What about the T/C (dose: 40.0 mg/kg/injection, schedule: Q04DX003 (ip), vehicle: Klucel (hydroxypropylcellulose) (HPC)) of the same molecule?
The T/C was 114 % of control.

Which results are given for `COc1ccc(CSC(=S)Nc2ccc(Cl)c(Cl)c2)cc1`?
T/C [8]: 101 % of control; T/C [5]: 108 % of control; T/C [6]: 93 % of control

Which results are given for `CN(C)c1ccc(/C=N\NC(=S)Nc2ccccc2)c(Cl)c1`?
T/C (dose: 12.5 mg/kg/injection, schedule: Q01DX009 (ip), vehicle: saline with Tween-80): 89 % of control; T/C (dose: 12.5 mg/kg/injection, schedule: Q04DX003 (ip), vehicle: saline): 98 % of control; T/C [1]: 91 % of control; T/C (dose: 25.0 mg/kg/injection, schedule: Q04DX003 (ip), vehicle: saline): 102 % of control; T/C [2]: 97 % of control; T/C [8]: 95 % of control; T/C (dose: 75.0 mg/kg/injection, schedule: Q01DX009 (ip), vehicle: saline with Tween-80): 101 % of control; T/C (dose: 100.0 mg/kg/injection, schedule: Q01DX001 (ip), vehicle: saline): 87 % of control; T/C (dose: 115.0 mg/kg/injection, schedule: Q01DX009 (ip), vehicle: saline with Tween-80): 98 % of control; T/C (dose: 170.0 mg/kg/injection, schedule: Q01DX009 (ip), vehicle: saline with Tween-80): 92 % of control; T/C (dose: 200.0 mg/kg/injection, schedule: Q01DX001 (ip), vehicle: saline): 95 % of control; T/C (dose: 400.0 mg/kg/injection, schedule: Q01DX001 (ip), vehicle: saline): 92 % of control

Which T/C (dose: 100.0 mg/kg/injection, schedule: Q04DX002 (ip), vehicle: saline) does the source give for `Cc1cnc(/C=N/NC(N)=S)cn1` here?
Its T/C is 99 % of control.

What about the T/C (dose: 200.0 mg/kg/injection, schedule: Q04DX002 (ip), vehicle: saline) of the same molecule?
Its T/C is 96 % of control.

What about the T/C (dose: 400.0 mg/kg/injection, schedule: Q04DX002 (ip), vehicle: saline) of the same molecule?
The T/C was 108 % of control.

For `CCOC(=O)CCC(NC(=O)c1ccc(NCc2nnc3nc(N)nc(SCc4ccccc4)c3n2)cc1)C(=O)OCC` (centres undefined), which T/C (dose: 100.0 mg/kg/injection, schedule: Q01DX001 (ip), vehicle: saline with Tween-80) is on record?
The T/C was 103 % of control.

What about the T/C (dose: 200.0 mg/kg/injection, schedule: Q01DX001 (ip), vehicle: saline with Tween-80) of the same molecule?
The T/C was 100 % of control.

What about the T/C (dose: 400.0 mg/kg/injection, schedule: Q01DX001 (ip), vehicle: saline with Tween-80) of the same molecule?
Its T/C is 105 % of control.

Which results are given for `CCCCNC(=O)c1c(Cl)c(Cl)c(Cl)c(Cl)c1C(=O)O`?
T/C (dose: 100.0 mg/kg/injection, schedule: Q04DX002 (ip), vehicle: saline with Tween-80): 97 % of control; T/C (dose: 200.0 mg/kg/injection, schedule: Q04DX002 (ip), vehicle: saline with Tween-80): 90 % of control
